Legend:
[1] = target: T1, pyruvate kinase liver (PKL) (Homo sapiens, UniProt P30613); assay: Pyruvate kinase activity in treated HepG2 PKM2 CRISPR KO cells; assay type: cell-based; conditions: 10 µM for 4 h; for effect on PK activity in HepG2 KO cells (in words): compared to the control
T1 construct: endogenous in cells; host or cells: HepG2 PKM2 CRISPR KO (HepG2 KO) cells; lysate in CelLytic M or treated whole cells
Method: (§1) HepG2 WT and HepG2 KO cells were lysed, and protein lysate was prepared with CelLytic M (C2978, Sigma-Aldrich) lysis buffer. Protein lysate was treated with 10 µM of the drugs and the pyruvate kinase activity on protein lysate was measured using Pyruvate Kinase Assay Kit (ab83432, abeam) following manufacturer's instruction. 2×10^4 HepG2 WT cells and 1×10^5 HepG2 KO cells were seeded into a 96-well plate for measuring pyruvate kinase activity in the cells. The cells were treated with 10-20µM of drugs for 4h and washed with 250µl PBS. Cells were lysed with 50 µl PK assay buffer (ab83432, abcam) and start reaction and kinetic O.D measurement was performed on 50µl PK assay buffer containing the assay component (ab83432, abcam). O.D values were measured with microplate reader (Hidex Sense Beta Plus) at 570nm wavelength. DMSO was used as control.
(§2) The effect of the target compounds was studied on liver cell line HepG2. HepG2 expresses two different pyruvate kinases (PK), pyruvate kinase muscle (PKM2) and pyruvate kinase liver (PKL). While most cells express PKM, liver cells further express PKL. […] In addition to HepG2 KO cell, HepG2 wild-type (HepG2 WT) cells were also used.

pyruvate kinase (PK) [2] = assay: Pyruvate kinase activity in treated HepG2 WT cells; assay type: cell-based; conditions: 10 µM for 4 h; for effect on PK activity in HepG2 WT cells (in words): compared to the control
Method: as §1, §2

pyruvate kinase (PK) [3] = assay: Pyruvate kinase activity in HepG2 WT protein lysate; assay type: biochemical; conditions: 10 µM; for reduction in PK activity of HepG2 WT protein lysate: compared to the control (DMSO); for PK activity of HepG2 WT protein lysate (in words): batches 4 and 5
Method: as §1, §2

HepG2 cells = assay: TAG measurement in DNL steatosis model; assay type: cell-based; conditions: for reduction in TAG/MTT ratio / TAG content (in words): 10 µM for 1 week; for reduction in TAG/MTT ratio: compared to the control (DMSO)
Method: HepG2 wild type cells were purchased from genome engineering company Synthego. Cells were maintained with growth media RPMI 1640 (R2405, Sigma-Aldrich) and supplemented with 10 % fetal bovine serum (FBS, F7524, Sigma-Aldrich), 1 % penicillin-streptomycin (P/S media, P4333, Sigma-Aldrich). Steatosis induction media was prepared as DMEM high glucose (D0819, Sigma-Aldrich) with 10% FBS, 1% P/S media supplemented with 10µg/ml insulin (I9278, Sigma-Aldrich), and 10µM T0901317 (T2320, Sigma-Aldrich) for one week. HepG2 cells were seeded 6×10^4 cells per well into a 96-well plate for TAG and MTT assay after steatosis and 1×10^6 cells per well into 6-well plate for western blot analysis after steatosis. HepG2 cells were incubated with steatosis induce media (SM) for one week by 3 day + 2 day + 2 day with total three times media exchange.
HepG2 cells were seeded at 6×10^4 cells per well into 96-well plate and induced steatosis for one week with designated concentration of small molecules (this will be referred to as a DNL steatosis model). After steatosis induction, cells were washed with 200 µl of PBS and triglyceride contents was measured by Triglyceride Assay Kit - Quantification (ab65336, Abeam) following manufacturer's instruction. Optical density (O.D) values were detected with microplate reader at 570 nm (Hidex Sense Beta Plus).
5 mg/ml MTT (M2128, Sigma-Aldrich) solution in PBS (10 µL) was added to each well for MTT assay. After 1 hr, MTT solution and all media were removed from the wells. 100 µl of DMSO was added and mixed to dissolve the formazan crystals. Cell viability was analysed by measuring the absorbance of the dissolved formazan in a microplate reader at a wavelength of 570 nm with microplate reader (Hidex Sense Beta Plus). DMSO was used as control.

[4] = target: T1, pyruvate kinase liver (PKL); assay: Pyruvate kinase activity in HepG2 PKM2 CRISPR KO protein lysate; assay type: biochemical; conditions: for inhibition at 10 µM / reduction in PK activity of HepG2 KO protein lysate: compared to the control (DMSO); for inhibition at 10 µM: read-out: reduction in PK activity of HepG2 KO protein lysate; for PK activity of HepG2 KO protein lysate (in words) / reduction in PK activity of HepG2 KO protein lysate: 10 µM; for PK activity of HepG2 KO protein lysate (in words): batches 4 and 5
Method: as §1, §2

T1 sequence (P30613 1-543 isoform P30613-2): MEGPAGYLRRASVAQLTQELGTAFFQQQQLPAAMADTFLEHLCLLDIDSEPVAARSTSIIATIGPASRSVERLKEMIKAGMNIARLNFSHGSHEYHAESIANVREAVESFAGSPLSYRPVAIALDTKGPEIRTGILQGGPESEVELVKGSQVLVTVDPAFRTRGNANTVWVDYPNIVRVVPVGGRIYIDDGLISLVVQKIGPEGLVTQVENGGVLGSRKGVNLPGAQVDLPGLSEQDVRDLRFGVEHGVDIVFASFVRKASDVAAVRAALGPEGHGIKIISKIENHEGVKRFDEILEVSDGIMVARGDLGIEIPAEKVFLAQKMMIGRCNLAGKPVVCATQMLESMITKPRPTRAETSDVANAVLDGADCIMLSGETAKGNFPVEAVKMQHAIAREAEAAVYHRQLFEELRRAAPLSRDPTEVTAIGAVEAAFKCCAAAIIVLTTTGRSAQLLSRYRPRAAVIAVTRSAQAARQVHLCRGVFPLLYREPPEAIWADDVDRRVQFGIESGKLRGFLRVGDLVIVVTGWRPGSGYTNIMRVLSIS

`COc1cc2c(cc1OC)N(Cc1ccccc1)S(=O)(=O)c1cc(OC)c(OC)cc1-2` [SET-08, 6-benzyl-2,3,8,9-tetramethoxy-6H-dibenzo[c,e][1,2]thiazine 5,5-dioxide] was tested, and the “effect on PK activity in HepG2 KO cells (in words)” value [1] was “did not affect the PK activity” and the “effect on PK activity in HepG2 WT cells (in words)” value (pyruvate kinase (PK) [2]) was “did not affect the PK activity”.

In the case of `O=S(=O)(NCc1ccccc1)c1cc(O)c(O)cc1-c1ccc(O)c(O)c1` [SET-15, N-benzyl-3',4,4',5-tetrahydroxy-[1,1'-biphenyl]-2-sulfonamide], the “reduction in PK activity of HepG2 WT protein lysate” value (pyruvate kinase (PK) [3]) is reported as 25.4%, the “reduction in TAG/MTT ratio” value (HepG2 cells) is reported as 26.8% and the inhibition at 10 µM [4] is reported as 59.1%.

Molecule `COc1cc(Br)c(S(=O)(=O)NCc2cn(Cc3ccccc3)nn2)cc1OC` [SET-35A, N-((1-benzyl-1H-1,2,3-triazol-4-yl)methyl)-2-bromo-4,5-dimethoxybenzenesulfonamide] has an inhibition at 10 µM [4] of 4.4%.

`O=S(=O)(NCc1ccc(F)cc1)c1cc(O)c(O)cc1-c1cccc(O)c1` [SET-68B, N-(4-fluorobenzyl)-3',4,5-trihydroxy-[1,1'-biphenyl]-2-sulfonamide] was tested, and the “PK activity of HepG2 WT protein lysate (in words)” value (pyruvate kinase (PK) [3]) was “reduced the PK activity” and the “PK activity of HepG2 KO protein lysate (in words)” value [4] was “reduced the PK activity”.

For `O=S1(=O)Nc2cc(O)c(O)cc2-c2cc(O)c(O)cc21` [SET-10, 2,3,8,9-tetrahydroxy-6H-dibenzo[c,e][1,2]thiazine 5,5-dioxidee], the “reduction in PK activity of HepG2 WT protein lysate” value (pyruvate kinase (PK) [3]) was 28.7%, the inhibition at 10 µM [4] was 29.4% and the “effect on PK activity in HepG2 KO cells (in words)” value [1] was “did not affect the PK activity”. The “effect on PK activity in HepG2 WT cells (in words)” value (pyruvate kinase (PK) [2]) was “did not affect the PK activity”.

For `O=S1(=O)c2cc(O)c(O)cc2-c2ccc(C(F)(F)F)cc2N1Cc1ccc(F)cc1` [SET-59, 6-(4-fluorobenzyl)-2,2-dihydroxy-8-(trifluoromethyl)-6H-dibenzo[c,e][1,2]thiazine 5,5-dioxide], the “reduction in PK activity of HepG2 WT protein lysate” value (pyruvate kinase (PK) [3]) was 13.3%, the “TAG content (in words)” value (HepG2 cells) was “reduced TAG content” and the “reduction in PK activity of HepG2 KO protein lysate” value [4] was 11.1%.

`O=S1(=O)c2cc(O)c(O)cc2-c2cc(O)ccc2N1Cc1ccccc1` [SET-69D, 6-benzyl-2,3,9-trihydroxy-6H-dibenzo[c,e][1,2]thiazine 5,5-dioxide] was tested, and the “PK activity of HepG2 WT protein lysate (in words)” value (pyruvate kinase (PK) [3]) was “reduced the PK activity” and the “PK activity of HepG2 KO protein lysate (in words)” value [4] was “reduced the PK activity”.

For `COc1ccc(CN2c3cc(OC)c(OC)cc3-c3cc(OC)c(OC)cc3S2(=O)=O)cc1` [SET-18, 2,3,8,9-tetramethoxy-6-(4-methoxybenzyl)-6H-dibenzo[c,e][1,2] thiazine 5,5-dioxide], the inhibition at 10 µM ([1]; HepG2, read-out: inhibition of PK activity in HepG2 KO cells) was 7.5% and the “inhibition of PK activity in HepG2 WT cells” value (pyruvate kinase (PK) [2]) was 6.2%.

For `O=S(=O)(NCc1ccc(F)cc1)c1cc(O)c(O)cc1-c1ccc(C(F)(F)F)cc1` [SET-57, N-(4-fluorobenzyl)-4,5-dihydroxy-4'-(trifluoromethyl)-[1,1'-biphenyl]-2-sulfonamide], the “reduction in PK activity of HepG2 WT protein lysate” value (pyruvate kinase (PK) [3]) was 10.7%, the “TAG content (in words)” value (HepG2 cells) was “reduced TAG content” and the “reduction in TAG/MTT ratio” value (HepG2 cells) was 15.6%. It also gave an inhibition at 10 µM [4] of 35.2%.

In the case of `COc1cc2c(cc1OC)S(=O)(=O)N(Cc1ccc(F)cc1)c1cc(C(F)(F)F)ccc1-2` [SET-58, 6-(4-fluorobenzyl)-2,3-dimethoxy-8-(trifluoromethyl)-6H-dibenzo[c,e][1,2]thiazine 5,5-dioxide], the “reduction in PK activity of HepG2 WT protein lysate” value (pyruvate kinase (PK) [3]) is reported as 33.8%, the “TAG content (in words)” value (HepG2 cells) is reported as “reduced TAG content” and the inhibition at 10 µM [4] is reported as 32.4%.

`O=S1(=O)c2cc(O)c(O)cc2-c2cc(O)c(O)cc2N1Cc1ccccc1` [SET-09, 6-benzyl-2,3,8,9-tetrahydroxy-6H-dibenzo[c,e][1,2]thiazine 5,5-dioxide] was tested, and the “reduction in PK activity of HepG2 WT protein lysate” value (pyruvate kinase (PK) [3]) was 42.6%, the “reduction in TAG/MTT ratio” value (HepG2 cells) was 21.3% and the inhibition at 10 µM [4] was 70.2%.

With `O=S(=O)(NCc1ccccc1)c1cc(O)c(O)cc1-c1ccc(C(F)(F)F)cc1` [SET-60, N-benzyl-4,5-dihydroxy-4'-(trifluoromethyl)-[1,1'-biphenyl]-2-sulfonamide] the “TAG content (in words)” value (HepG2 cells) was “reduced TAG content”, the “reduction in TAG/MTT ratio” value (HepG2 cells) was 16.3% and the inhibition at 10 µM [4] was 17.2%.

`O=S(=O)(NCc1ccc(F)cc1)c1cc(O)c(O)cc1-c1ccc(O)cc1` [SET-66B, N-(4-fluorobenzyl)-4,4',5-trihydroxy-[1,1'-biphenyl]-2-sulfonamide] was tested, and the “PK activity of HepG2 WT protein lysate (in words)” value (pyruvate kinase (PK) [3]) was “reduced the PK activity”, the “increase of the TAG/MTT ratio” value (HepG2 cells; 5 µM for 1 week) was 6.0% and the “PK activity of HepG2 KO protein lysate (in words)” value [4] was “reduced the PK activity”.

In the case of `O=S1(=O)c2cc(O)c(O)cc2-c2cc(O)ccc2N1Cc1ccc(F)cc1` [SET-68D, 6-(4-fluorobenzyl)-2,3,9-trihydroxy-6H-dibenzo[c,e][1,2]thiazine 5,5-dioxide], the “PK activity of HepG2 WT protein lysate (in words)” value (pyruvate kinase (PK) [3]) is reported as “highest inhibitory effect”.

`COc1cc(-c2ccc(C(F)(F)F)cc2)c(S(=O)(=O)NCc2ccccc2)cc1OC` [SET-26, N-benzyl-4,5-dimethoxy-4'-(trifluoromethyl)-[1,1'-biphenyl]-2-sulfonamide] gave an inhibition at 10 µM [4] of 8%.

With `O=S(=O)(NCc1ccc(F)cc1)c1cc(O)c(O)cc1-c1ccc(O)c(O)c1` [SET-13, N-(4-fluorobenzyl)-3',4,4',5-tetrahydroxy-[1,1'-biphenyl]-2-sulfonamide] the “reduction in PK activity of HepG2 WT protein lysate” value (pyruvate kinase (PK) [3]) was 15.8%, the “reduction in TAG/MTT ratio” value (HepG2 cells) was 21.9% and the inhibition at 10 µM [4] was 70.2%.

`Cn1c2cc([S+](C)[O-])sc2c2cnn(Cc3cccc(N)c3)c(=O)c21` (stereo not shown) [TEPP46, reference compound] was tested, and the “effect on PK activity in HepG2 WT cells (in words)” value (pyruvate kinase (PK) [2]) was “increased activity”.

`COc1cc(Br)c(S(=O)(=O)NCc2cn(CC(=O)c3ccccc3)nn2)cc1OC` [SET-27A, 2-bromo-4,5-dimethoxy-N-((1-(2-xox-2-phenylethyl)-1H-1,2,3-triazol-4-yl)methyl) benzenesulfonamide] gave an inhibition at 10 µM [4] of 4.3%.

For `COc1cc2c(cc1OC)S(=O)(=O)N(Cc1ccccc1)c1cc(C(F)(F)F)ccc1-2` [SET-61, 6-benzyl-2,2-dimethoxy-8-(trifluoromethyl)-6H-dibenzo[c,e][1,2]thiazine 5,5-dioxide], the “reduction in PK activity of HepG2 WT protein lysate” value (pyruvate kinase (PK) [3]) was 11.7% and the “reduction in PK activity of HepG2 KO protein lysate” value [4] was 8.8%.

`O=S(=O)(NCc1ccccc1)c1cc(O)c(O)cc1-c1cccc(O)c1` [SET-69B, N-benzyl-3',4,5-trihydroxy-[1,1'-biphenyl]-2-sulfonamide] was tested, and the “PK activity of HepG2 WT protein lysate (in words)” value (pyruvate kinase (PK) [3]) was “reduced the PK activity” and the “PK activity of HepG2 KO protein lysate (in words)” value [4] was “reduced the PK activity”.
